From patent EP0033088A2, “Antimycotic agents” (BAYER AG, priority 1980, dated 1981)

These compounds were tested on Candida (assay: Antimicrobial in-vivo activity (oral) in mouse candidosis). Conditions: mice infected i.v. with Candida cells; 50 to 100 mg/kg oral, one hour before and seven hours after infection; compared with prior-art compounds; untreated survival about 5 % on day 6.
Parameters: species or system Mäuse vom Typ SPF-DF1
Procedure: Mäuse vom Typ SPF-DF1 wurden intravenös mit 1 bis 2 x 10^6 logarytmisch wachsenden Candida-Zellen, die in physiologischer Kochsalzlösung suspendiert waren, infiziert. Eine Stunde vor und sieben Stunden nach der Infektion werden die Tiere mit jeweils 50 bis 100 mg/kg Körpergewicht der Präparate oral behandelt.
Unbehandelte Tiere starben 3 bis 6 Tage post infektionem. Die Überlebensrate am 6. Tag post infektionem betrug bei unbehandelten Kontrolltieren etwa 5 %.
With `OC(c1ccc(Cl)cc1Cl)C(C(O)C(Cl)(Cl)Cl)n1cncn1` (centres unmarked) [Beispiel 14] the in-vivo-Wirksamkeit was “denjenigen der Verbindungen des Standes der Technik überlegen”.
`CC(Cl)C(Cl)(Cl)C(O)C(C(O)C(C)(C)C)n1cncn1` (centres unmarked) [Beispiel 21] was tested, and the in-vivo-Wirksamkeit was “denjenigen der Verbindungen des Standes der Technik überlegen”.
For `CC(C)(C)C(O)C(C(O)C=C(Cl)Cl)n1cncn1` (centres unmarked) [Beispiel 6], the in-vivo-Wirksamkeit was “denjenigen der Verbindungen des Standes der Technik überlegen”.
For `CC(C)(C)C(O)C(C(O)C(C)(C)Cl)n1cncn1` (centres unmarked) [Beispiel 4], the in-vivo-Wirksamkeit was “denjenigen der Verbindungen des Standes der Technik überlegen”.
With `OC(c1ccc(Cl)cc1)C(C(O)C(Cl)(Cl)Cl)n1cncn1` (centres unmarked) [Beispiel 12] the in-vivo-Wirksamkeit was “denjenigen der Verbindungen des Standes der Technik überlegen”.
With `OC(c1ccc(F)cc1)C(C(O)C(Cl)(Cl)Cl)n1cncn1` (centres unmarked) [Beispiel 15] the in-vivo-Wirksamkeit was “denjenigen der Verbindungen des Standes der Technik überlegen”.
`CC(Cl)C(Cl)(Cl)C(O)C(C(O)C(C)(C)CF)n1cncn1` (centres unmarked) [Beispiel 11] was tested, and the in-vivo-Wirksamkeit was “denjenigen der Verbindungen des Standes der Technik überlegen”.
In the case of `CC(C)(C)C(O)C(C(O)C(Cl)(Cl)Cl)n1cncn1` (centres unmarked) [Beispiel 1, 1,1,1-Trichlor-3-(1,2,4-triazol-1-yl)-5,5-dimethyl-hexan-2,4-diol], the in-vivo-Wirksamkeit is reported as “denjenigen der Verbindungen des Standes der Technik überlegen”.
